Assay results published in patent US20100216706A1, “Ghrelin Protects Substantia Nigra Dopamine Neurons” (priority 2007, published 2010).
No end group written: not given here. *: point of attachment. Octanoyl = CCCCCCCC(=O)*

Tested on: striatal dopamine
Experiment: Striatal DA concentration after ghrelin injection (HPLC)
Format: in vivo, mice
Experimental: The samples were subsequently thawed in 0.4 ml of chilled 0.1 M perchloric acid and sonicated. Aliquots were taken for protein quantification using a spectrophotometric assay. Other aliquots were centrifuged, and DA levels were measured in supernatants by high pressure liquid chromatography (HPLC) with electrochemical detection. Concentrations of DA and metabolites were expressed as ng/mg protein (mean±SEM).
To further examine the effect of ghrelin on the nigrostriatal system, striatal DA concentration after ghrelin injection in wild-type mice was measured using HPLC.

ghrelin (GSS(Octanoyl)FLSPEHQRVQQRKESKKPPAKLQPR; listed as Homo sapiens) [28 amino acid acyl-peptide esterified with octanoic acid on Ser3; endogenous ligand of GHSR]
Effect on DA concentration in ghsr−/− mice (ghsr−/− mice): no effect
DA concentration in ventral striata (wild-type mice after ghrelin injection): 126.5±7.26 ng/mg protein
DA concentration in dorsal striatum (wild-type mice after ghrelin injection, saline 119.4±9.6): 153±4.6 ng/mg protein
